Values quoted from earlier work as cited in patent publication US20190038640A1, “COMPOSITION, FORMULATIONS AND METHODS OF MAKING AND USING BOTANICALS AND NATURAL COMPOUNDS FOR THE PROMOTION OF HEALTHY BRAIN AGING” (THE BRAIN HEALTH PROJECT, LLC, priority 2013, published 2019).

Assays:
endometrium = conditions: genistein aglycone 54 mg
[1] = 0.1-0.2 mg HupA twice daily, active group
beta amyloid = conditions: AD transgenic mice
[2] = in vivo
[3] = system: alkaline phosphatase activity in the endometrium

O=c1c(-c2ccc(O)cc2)coc2cc(O)cc(O)c12 [Genistein, genistein]
reduction of endometrial hyperplasia without atypia compared with norethisterone acetate (endometrium): as successful as

C/C=C1\[C@H]2C=C(C)C[C@]1(N)c1ccc(=O)[nH]c1C2 [Huperzine A]
proportion of patients with a four point improvement on the ADAS-Cog [1]: 56% | terminal half life (0.2 mg pure Huperzine A orally, healthy subjects): approximately 6 hours | optimal plasma level (human, in vivo): 0.6 ng/mL

Cn1c(=O)c2c(ncn2C)n(C)c1=O [caffeine]
reduction of beta amyloid deposition in the entorhinal cortex (beta amyloid): 46% | reduction of beta amyloid deposition in the hippocampus (beta amyloid): 40% | half life [2]: 4 to 6 h | time to peak blood levels [2]: within one hour

O=c1c(-c2ccc(O)cc2)coc2cc(O)ccc12 [daidzein]
potency of inducing alkaline phosphatase activity relative to estradiol [3]: one millionth
